Earlier results as cited in US20150246027A1, “FIXED DOSE PHARMACEUTICAL COMPOSITION COMPRISING DEFERASIROX AND DEFERIPRONE” (CIPLA LIMITED, priority 2012, published 2015).
In brackets after ≈: the same amount, converted by molar mass. Entries after “also recorded” stand apart in the source; their conditions may differ.

Legend:
[1] = Bio-pharmaceutics Classification System
[2] = for solubility in water (in words): water / aqueous media
[3] = oral; majority excreted as inactive glucuronide metabolite

| permeability (in words) | BCS class [1] | solubility at pH 6.8 (in words) ([2]; pH 6.8, until the buffer strength is altered) | ingested dose excreted as the active form [3] | solubility in water ([2]; water) [mg/mL] | SMILES | solubility in water (in words) [2] |
| --- | --- | --- | --- | --- | --- | --- |
| good permeability | Class II | insoluble | – | – | O=C(O)c1ccc(-n2nc(-c3ccccc3O)nc2-c2ccccc2O)cc1 [Deferasirox, 4-[3,5-bis(2-hydroxyphenyl)-[1,2,4]triazol-1-yl]enzoic acid] | highly water-insoluble; also recorded: practically insoluble |
| – | – | – | less than 10% | 12.95 (≈ 93.1 mM) | Cc1c(O)c(=O)ccn1C [Deferiprone, 3-hydroxy-1,2-dimethylpyridin-4-one] | sparingly soluble |
